# How the values were obtained:
# [1] = tested on: Kurosengoku/Indeterminate soybean; experiment: Example 3 pot test, pre-emergence soil spray: crop injury on soybean variety Kurosengoku; format: in vivo, Glycine max; details: 18 days after treatment
# From the text: (§1) The evaluation of the herbicidal effect and crop injury is classified into 0 to 100, where the numeral “0” indicates no or little difference in the state of germination or growth of weeds or soybean under test at the time of examination as comparison with untreated weeds or soybean, respectively and the numeral “100” indicates the complete death of weeds or soybean under test or the complete inhibition of their germination or growth of weeds or soybean under test.
# (§2) Four varieties of determinate soybean, four varieties of indeterminate soybean, Palmer amaranth, kochia and large crabgrass were sown to a pot filled with a soil. On the next day, a trifludimoxazin spray liquid. (prepared by diluting an emuslfiable concentrate of trifludimoxazin with water) was uniformly sprayed onto the pot at the amount of 200 L, per hectare so that the application rate of trifludimoxazin might be 25 and 50 g per hectare. 18 days after treatment, herbicidal effects on weeds and injury on soybeans were investigated. As a result, the herbicidal effect on each of the three weeds was 100.
# [2] = tested on: palmer amaranth, waterhemp, kochia, common ragweed and marestail; experiment: Example 2 pot test, spray on day of weed sowing, before soybean sowing: herbicidal effect on weeds; format: in vivo; details: 25 or 50 g per hectare; applied on day of weed sowing; 21 days after sowing soybeans
# From the text: as §1
# (§3) A pot is filled with a soil, and then Palmer amaranth, waterhemp, kochia, common ragweed and marestail are sown thereto. On the same day, trifludimoxazin spray liquid (prepared by diluting trifludimoxazin formulation (an aqueous suspension concentrate containing 500 g/L of trifludimoxazin) with water) is uniformly applied onto the pot using a sprayer at the amount of 200 L per hectare so that the application rate of trifludimoxazin may be 25 or 50 g per hectare. On the next day, determinate soybean, indeterminate soybean, and semi-determinate soybean are sown. 21 days after sowing soybeans, herbicidal effects and injuries on various soybeans are investigated.
# [3] = tested on: determinate soybean, indeterminate soybean, semi-determinate soybean; experiment: Example 1 pot test, spray two days after sowing: injury on soybeans; format: in vivo, Glycine max; details: 25 or 50 g per hectare; applied two days after sowing; 21 days after the treatment
# From the text: as §1
# as §3, with “the determinate soybean, indeterminate soybean, semi-determinate soybean, palmer” for “then Palmer”, “Two days later,” for “On the same day,”, “an” for “(an”, “hectare.” for “hectare. On the next day, determinate soybean, indeterminate soybean, and semi-determinate soybean are sown.”, “the treatment,” for “sowing soybeans,”
# [4] = tested on: Fukunari/Determinate soybean; experiment: Example 3 pot test, pre-emergence soil spray: crop injury on soybean variety Fukunari; format: in vivo, Glycine max; details: 18 days after treatment
# From the text: as §1, §2
# [5] = tested on: Williams 82/Indeterminate soybean; experiment: Example 3 pot test, pre-emergence soil spray: crop injury on soybean variety Williams 82; format: in vivo, Glycine max; details: 18 days after treatment
# From the text: as §1, §2
# large crabgrass = experiment: Example 3 pot test, pre-emergence soil spray: herbicidal effect on large crabgrass; format: in vivo, Digitaria sanguinalis; details: 25 and 50 g per hectare, 18 days after treatment, 100 = complete death
# From the text: as §1, §2
# [6] = tested on: palmer amaranth, waterhemp, kochia, common ragweed and marestail; experiment: Example 1 pot test, spray two days after sowing: herbicidal effect on weeds; format: in vivo; details: 25 or 50 g per hectare; applied two days after sowing; 21 days after the treatment
# From the text: as §1
# as §3, with “the determinate soybean, indeterminate soybean, semi-determinate soybean, palmer” for “then Palmer”, “Two days later,” for “On the same day,”, “an” for “(an”, “hectare.” for “hectare. On the next day, determinate soybean, indeterminate soybean, and semi-determinate soybean are sown.”, “the treatment,” for “sowing soybeans,”
# [7] = tested on: Wild soybean/Indeterminate; experiment: Example 3 pot test, pre-emergence soil spray: crop injury on wild soybean; format: in vivo, Glycine soja; details: 18 days after treatment
# From the text: as §1, §2
# [8] = tested on: Toyomusume/Determinate soybean; experiment: Example 3 pot test, pre-emergence soil spray: crop injury on soybean variety Toyomusume; format: in vivo, Glycine max; details: 18 days after treatment
# From the text: as §1, §2
# kochia = experiment: Example 3 pot test, pre-emergence soil spray: herbicidal effect on kochia; format: in vivo, Kochia scoparia; details: 25 and 50 g per hectare, 18 days after treatment, 100 = complete death
# From the text: as §1, §2
# [9] = tested on: Tambaguro/Determinate soybean; experiment: Example 3 pot test, pre-emergence soil spray: crop injury on soybean variety Tambaguro; format: in vivo, Glycine max; details: 18 days after treatment, 0 = no or little difference from untreated, 100 = complete death
# From the text: as §1, §2
# [10] = tested on: Sachiyutaka/Determinate soybean; experiment: Example 3 pot test, pre-emergence soil spray: crop injury on soybean variety Sachiyutaka; format: in vivo, Glycine max; details: 18 days after treatment
# From the text: as §1, §2
# Palmer amaranth = experiment: Example 3 pot test, pre-emergence soil spray: herbicidal effect on Palmer amaranth; format: in vivo, Amaranthus palmeri; details: 25 and 50 g per hectare, 18 days after treatment, 100 = complete death
# From the text: as §1, §2
# [11] = tested on: Harosoy/Indeterminate soybean; experiment: Example 3 pot test, pre-emergence soil spray: crop injury on soybean variety Harosoy; format: in vivo, Glycine max; details: 18 days after treatment
# From the text: as §1, §2
# [12] = tested on: determinate soybean, indeterminate soybean, and semi-determinate soybean; experiment: Example 2 pot test, spray one day before soybean sowing: injury on soybeans; format: in vivo, Glycine max; details: 25 or 50 g per hectare; applied one day before sowing soybeans; 21 days after sowing soybeans
# From the text: as §1, §3
structure (smiles),measurement,setting,value
C#CCN1C(=O)C(F)(F)Oc2cc(F)c(-n3c(=O)n(C)c(=S)n(C)c3=O)cc21 [trifludimoxazin],injury on soybeans (0 to 100 scale),[1]; 25 g/hectare,30
same,injury on soybeans (0 to 100 scale),[1]; 50 g/hectare,60
same,herbicidal effects on weeds,[2],High effects on all weeds
same,injuries on various soybeans (comparison of growth habits),[3],injury on determinate soybean is less than those on indeterminate soybean and semi-determinate soybean
same,injury on soybeans (0 to 100 scale),[4]; 25 g/hectare,0
same,injury on soybeans (0 to 100 scale),[4]; 50 g/hectare,0
same,injury on soybeans (0 to 100 scale),[5]; 25 g/hectare,40
same,injury on soybeans (0 to 100 scale),[5]; 50 g/hectare,80
same,herbicidal effect (0 to 100 scale),large crabgrass,100
same,herbicidal effects on weeds,[6],High herbicidal effects on all weeds
same,injury on soybeans (0 to 100 scale),[7]; 25 g/hectare,100
same,injury on soybeans (0 to 100 scale),[7]; 50 g/hectare,100
same,injury on soybeans (0 to 100 scale),[8]; 25 g/hectare,0
same,injury on soybeans (0 to 100 scale),[8]; 50 g/hectare,5
same,herbicidal effect (0 to 100 scale),kochia,100
same,injury on soybeans (0 to 100 scale),[9]; 25 g/hectare,0
same,injury on soybeans (0 to 100 scale),[9]; 50 g/hectare,10
same,injury on soybeans (0 to 100 scale),[10]; 25 g/hectare,0
same,injury on soybeans (0 to 100 scale),[10]; 50 g/hectare,0
same,herbicidal effect (0 to 100 scale),Palmer amaranth,100
same,injury on soybeans (0 to 100 scale),[11]; 25 g/hectare,30
same,injury on soybeans (0 to 100 scale),[11]; 50 g/hectare,50
same,injuries on various soybeans (comparison of growth habits),[12],injury on determinate soybean is less than those on indeterminate soybean and semi-determinate soybean
